Measured values: publication PMC7794433, “Peptide signaling without feedback in signal production operates as a true quorum sensing communication system in Bacillus subtilis” (Communications Biology, 2021)
“Also recorded” adds a separate entry of the source.

Tests used:
[1] = tested on: srfA promoter in B. subtilis PS-216 (∆comQ, PsrfAA-yfp); test: srfA promoter response (Yfp fluorescence per cell) to exogenously added ComX; format: cell-based, Bacillus subtilis
Method: In our model, the expression level of the srfA operon serves as a measure for the response (RM) to the signal molecule SM, represented by ComX. To study how RM depends on SM we evaluated promoter activity of srfA in the B. subtilis PS-216 (∆comQ, PsrfAA-yfp), which carries the markerless deletion of comQ[42] and is therefore signal-deficient. […] The response to SM was sigmoidal. […] We have therefore taken the 4 hours response curve (Fig. 4a) as a reference for further communication system analysis. The sigmoidal functions can typically describe the relationship between transcription factors and promoter activities, and can be modeled by the Hill equation[43],[44]. […] This agrees with the research showing that two molecules of the ComA homodimer cooperatively bind to the two promoter regions located upstream of the RNAP binding sites of srfA[13],[20],[45].
To quantify a response (RM) to different signal molecule (SM) concentrations at the population level we used the signal deficient B. subtilis PS-216 (∆comQ PsrfAA-yfp), which carries the comQ marker-less deletion and the srfA promoter tagged with the Yfp fluorescent reporter (Supplementary Table 1).
(final concentration of 50 µg mL^–1). […] The plate was placed on a microtiter plate shaker (1 mm orbit, 1100 rpm) that was positioned in the humidified chamber to eliminate sample evaporation. To improve the homogeneity of the conditions (airflow, temperature) on the microtiter plate the microtiter plate lids were elevated by 2 mm relative to the surface of microtiter plate. The plates were incubated at 37 °C for 3, 4, or 6 h. The cells were then re-suspended and fixed in 200 µL of 1% agarose containing DAPI dye (6 µg mL^−1).
For quantitative analysis we used laser confocal fluorescence microscopy (Zeiss, LSM 800). The images were acquired by two laser channels—488 nm laser for acquiring fluorescence from Yfp protein and 405 nm laser to acquire fluorescence from DAPI dye. The acquired images were 1024 × 1024 pixels in size with 16-bit color depth at 20× optical magnification (objective 20×/NA 0.4, Zeiss) and were analyzed with Fiji-ImageJ[59] custom script. Four images per well of microtiter plate were taken, each image contained about 350 cells. The measure for amount of Yfp on image was integrated density i.e., the product of mean fluorescence intensity and area taken by the cells. The response per cell was quantified as the ratio of image integrated density by the number of cells obtained from DAPI image.
The analytical form of the model equation for response per cell to the signal during bacterial growth in the fermenter batch system (Eq. 3, eq S11) was derived and fitted to the experimental data by the help of Wolfram Mathematica 11.0 (Wolfram Research, Inc.). […]

[2] = tested on: ComX biosensor BD2876 (ΔcomQ, srfA-lacZ); test: β-galactosidase response of ComX biosensor BD2876 to spent medium or added ComX; format: cell-based, Bacillus subtilis; conditions: ≈1 nM ComX in PS-216 ΔcomQ spent medium (positive control)
Method: Overnight cultures were grown in competence medium[57] (CM) supplemented with L-histidine, L-leucine, and L-methionine (50 μg mL^–1). Prior to fermenter inoculation, the cells were washed twice by replacing the spent medium of overnight culture with SS buffer[58]. Cell suspension was inoculated into 1.2 L of fresh CM (2% inoculum). Incubation was performed at 37 °C with mixing at 700 rpm and the closed off air flow. In instances where we tested O2 impact on SM concentration the medium was saturated with O2 by ensuring a supply of compressed air at a flow rate of 1 L min^-1. The dissolved O2 was measured using the O2 polarized electrode InPro 6820 (Mettler Toledo). No pH correction was performed or anti foaming agents were added.
control) ▲,,, or supplemented with the wt strain spent medium 10 times diluted by spent medium of the
ΔcomQ strain (experimental) ▲,,; The spent medium of the PS-216 (ΔcomQ) strain was obtained in the
parallel fermenter batch system. The strains PS-216 wt and PS-216 (ΔcomQ) were grown in the fermenter batch
system where oxygen supply was limited (a) or supplied to the saturation (b).
to 3 independent experiments.

[3] = Aging of purified ComX stock solution followed by HPLC; format: physicochemical; conditions: 4 °C
Method: spectrometer (Bruker, Germany). FlexControl 3.3 software (Bruker, Germany) was used to control the instrument, FlexAnalysis 3.3 to process data and to calibrate spectra (Bruker, […]
two-sided), for about 2-fold compared to the original medium (Fig. S6b ). To further increase […]
recombinant proteins in E. coli and gained altogether significant 5-fold increase (P < 0.0001, t-value= 9.6, two- sided) compared to the original medium. The overnight LB E. coli ED367 culture, supplemented with 100 µg/mL of Amp, grown in 37 °C (200 rpm), was transferred to fresh TB medium (1 % inoculum) supplemented by 20 mM MgCl2 and 100 µg/mL of Amp.
After about 2 h and 45 min of incubation at 37 °C (200 rpm) when culture reached OD650 of […]., the spent growth medium was removed by culture centrifugation (5000 g, 5 min, room temperature). […]
β-galactosidase assay. […] To improve the sensitivity of the assay, the plates were then warmed to 30 °C, 25 μL ortho- nitrophenyl-β-galactoside (ONPG) substrate (8 mg/mL) was added and the absorbance (420 nm) in 1 min intervals was read using a Multiscan Spectrum […]
Supplementary Figure 5: Maximum normalized response measured as the srfA promoter activity of B. subtilis PS-216 (∆comQ, PsrfAA -yfp) (no signal production) to the exogenously added signal molecule, SM, (ComX). […]
SS buffer at 4 °C as measured by HPLC. […]

B. subtilis proteases [4] = test: Biological degradation of ComX in B. subtilis spent medium; format: in vitro ADME, Bacillus subtilis; conditions: spent CM medium max 7 h old; assumption from low protease content
Method: cells per unit volume (cell density), N(t) , and the time cells were producing the molecule, t . The molecule of interest can potentially get degraded by the degradation rate γ(t ). In the differential form and as a function of time one can express concentration of signal molecule SM(t) as:
dddddd (tt ) = PPdddd (tt ) NN (tt ) − γγ (tt )SSSS (tt ) eq S1 […]
spent medium obtained after 24 h of incubation with PS -216 wt (when the proteases accumulated in enough high concentration). In our case, however, the spent media were maxi mal 7 h old and the protease content of spent CM growth medium used in current study […]
(Supplementary Fig. 7). Therefore , we assumed that biological degradation of SM (ComX) is negligible under conditions in this study. Under the buffered conditions (as in CM growth […]
experiments where we applied our model. Therefore, in our modeling we assumed that degradation rate of SM is negligible (γ(t) ≈ 0) and the eq S 1 can be simplified to: […]
Normalized fluorescence intensity per cell Normalized fluorescence intensity per cell
Supplementary Figure 8: The second replicate (for first replicate, see Fig 5g,h) of the distribution of gene expression measured by single cell fluorescence microscopy. Gene expression level was measured as Na-fluoresceinate standard normalized mean fluorescence intensity per cells expressing comQ -yfp (a) and srfA -cfp (b). […]

B. subtilis proteases [5] = conditions: 24 h MSgg spent medium of PS-216 wt; 24 h incubation; ref Spacapan et al.22; cited from earlier work
Description: page 5: cells per unit volume (cell density), N(t) , and the time cells were producing the molecule, t . The molecule of interest can potentially get degraded by the degradation rate γ(t ). […] The protease content of CM growth medium used in t ...

ADPITRQWGD [ComX, isoprenylated (farnesylated) quorum sensing signal peptide of B. subtilis, HPLC purified from E. coli ED367]
ComX concentration at which the highest response value is reached ([1]; 37 °C, CM medium, n = 4): around 10 nM
Shape of response to ComX ([1]; 4 h incubation, exogenously added ComX): sigmoidal
Lower limit response (LLR), critical ComX concentration required to induce quantifiable response ([1]; first significantly positive response (lower 95% confidence level > 0), 37 °C, CM medium): 0.2 to 0.5 nM
Km ([1]; read-out: Km, ComX concentration at which half of the maximum response is achieved, Hill fit (Eq. 2) of srfA promoter Yfp fluorescence per cell, CM medium, 37 °C, 3, 4 or 6 h incubation, BSA added, n = 4): 3 to 5 nM
Biosensor BD2876 response to added purified ComX [2]: strongly responded
Half-life time of ComX ([3]; purified ComX stock (typically 200 nM) in SS buffer with BSA 50 μg/mL, n = 8 independent experiments): about 50 days
Chemical stability ([3]; purified ComX, SS buffer): strong chemical stability
Biological degradation in spent CM medium (B. subtilis proteases [4]): negligible
Degradation in MSgg spent medium (B. subtilis proteases [5]): significant level only after incubating ComX for 24 h; also recorded: can degrade
